Data taken from US10316056B2, “Chemical compounds and use thereof for improving muscular quality” (BIOPHYTIS, priority 2014, dated 2019).

How the values were obtained:
[1] = tested on: S6 kinase (S6K1) phosphorylation in C2C12 cells; assay: Phosphorylation of the S6 kinase in C2C12 cells (ELISA pS6K T389), protein synthesis; assay type: cell-based, mouse; settings: Mus musculus, C2C12, 2 h; for activity at 10 µM: read-out: Protein synthesis (percentage increase in S6K phosphorylation in muscle cells); for activity: test compounds and 20E reference (10 μM), read-out: S6K1 phosphorylation level
Procedure: After several experiments in which the C2C12 cells differentiated into myotubes were incubated in the presence of IGF-1 or 20E for 2 h 30 or 6 h, two screening tests were developed. Thus, the phosphorylation of the S6 protein kinase and the expression of the myostatin gene were studied in order to determine their modulation by a growth hormone or an ecdysone and to characterize these modulations from a statistical point of view.
The C2C12 myoblast cells (ATCC CRL-1772) are seeded into 6-well plates at a density of 170 000 cells per well and cultured in a DMEM medium containing glucose in a proportion of 4.5 g/l and supplemented with fetal calf serum (10%) and with antibiotics (penicillin and streptomycin). Forty-eight hours later, the myoblasts are induced to differentiate by partial serum depletion (2% instead of 10%) for 5 days. The cells are then placed in a medium which is glucose-depleted (DMEM containing 1 g/l of glucose) and serum-free in the presence of the test molecules or of the references (100 ng/ml IGF-1 or 10 μM 20E) for 2 h. At the end of the experiment, the cells are lysed in a commercial lysis buffer (Invitrogen FNN0011) supplemented with a commercial mixture of anti-proteases (Roche 05056489001). After centrifugation, the cytoplasmic fraction containing the soluble proteins is kept and the protein concentration is determined using a commercial kit (Biorad 500-0114), the principle of which is composed of assaying by the Lowry method. The assaying of the S6 kinase phosphorylation is carried out using a commercial ELISA (Enzyme Linked ImmunoSorbent Assay) kit (Cell signaling 7063). Briefly, 50 μg of protein lysate are deposited in the wells of a 96-well microplate and incubated overnight at 4° C. with the solution of antigen specific for the pS6 kinase threonine 389 antibody. The binding of the antigen to the bottom of the wells is done electrostatically. The solution of antibody to be assayed (pS6K T389) is then incubated at 37° C. in the wells for 2 hours. The antibodies bind specifically to the antigen. The wells are then washed with washing buffer in order to remove the antigen-specific primary antibodies to be assayed which are in excess. The third step consists in binding the detection antibody. The solution of detection antibodies is incubated at 37° C. in the wells for 1 hour. The wells are then washed in order to remove the excess detection antibodies. It should be noted that the detection antibodies are coupled to an enzyme which, in the presence of its substrate, converts it into a reaction product that can be detected and measured by virtue of the appearance of a coloration. […] The appearance of a blue coloration in the substrate indicates the presence of the antibody to be assayed. In order to prevent any saturation phenomenon, a stop solution (generally containing […]) is added and brings about a change in coloration, which goes from blue to yellow. The strength thereof is proportional to the amount of enzyme present and thus to the concentration of antibody sought. The strength of the signal is measured using spectrophotometry at a wavelength of 450 nm.

[2] = rat, in vivo, po; for Cexp (coefficient of exposure): male, Wistar
Procedure: The pharmacokinetics of the compounds were evaluated orally using male Wistar rats (Charles River). […] The novel compounds according to the invention were administered at a dose of 10 mg/kg of body weight in the form of a mixture of 4 to 6 products. After administration, the blood was sampled from the tail at t=0.25 h, 0.5 h, 1 h, 3 h, 6 h and 8 h. The blood samples were centrifuged and the plasmas removed.

[3] = tested on: Soleus muscle of C57BL/6 mice subjected to a high-fat diet; assay: Mice subjected to a high-fat diet: weight and amount of proteins of the Soleus muscle; assay type: in vivo, C57BL/6J mice; settings: 5 mg/kg orally; high-fat diet for 6 weeks; compared with the control group; FIG. 3B
Procedure: The 20E as comparative compound and the compounds according to the invention (Nos. 51 and 93) were administered orally, at a dose of 5 mg/kg of body weight, to 12-week-old C57BL/6J mice subjected to a high-fat diet for 6 weeks. The effect of the compounds on the weight and the amount of proteins of the Soleus muscle and also the transcripts of genes involved in myogenesis were evaluated.
The amount of proteins is determined by first lysing the muscles sampled in a 0.1N NaOH solution with the FastPrep technique. The proteins are quantified by means of a colorimetric assay derived from the Lowry method.
The in vivo study is carried out by evaluating the effect of 20E as comparative compound and of the molecules according to the invention (Nos. 51 and 93) administered orally, at a dose of 5 mg/kg of body weight, to C57BL/6 mice subjected to a high-fat diet for 6 weeks. The effect of the molecules on the weight and the amount of proteins of the Soleus muscle and also the transcripts of genes involved in myogenesis were evaluated.

Compound | activity at 10 µM [1] [%] | activity [1] [%] | Cexp (coefficient of exposure) [2] | plasma exposure compared with 20E [2] | amount of proteins of the Soleus muscle [3]
CCC(CC)C(=O)N(CCOC)C(C)[C@H]1CC[C@@]2(O)C3=CC(=O)[C@@H]4C[C@@H](O)[C@@H](O)C[C@]4(C)C3CC[C@]12C (stereo partly drawn) [Compound 51, 2-ethyl-N-(2-methoxyethyl)-N-[1-[(2S,3R,5R,10R,13R,14S,17S)-2,3,14-trihydroxy-10,13-dimethyl-6-oxo-2,3,4,5,9,11,12,15,16,17-decahydro-1H-cyclopenta[a]phenanthren-17-yl]ethyl]butanamide] | 110 to 129 | ~120 | 3.6 | better plasma exposure | 
CCSCC(=O)[C@H]1CC[C@@]2(O)C3=CC(=O)[C@@H]4C[C@@H](O)[C@@H](O)C[C@]4(C)C3CC[C@]12C (stereo partly drawn) [Compound 93, (2S,3R,5R,10R,13R,14S,17S)-17-(2-ethylsulfanylacetyl)-2,3,14-trihydroxy-10,13-dimethyl-2,3,4,5,9,11,12,15,16,17-decahydro-1H-cyclopenta[a]phenanthren-6-one] | > 130 | 130 to 140 | 10.3 | better plasma exposure | significant increase
